Experimental data: patent US9115072B2, “Compounds and method for reducing uric acid” (WELLSTAT THERAPEUTICS CORPORATION, priority 2008, dated 2015)
Structures can show the parent of a compound that is named as a salt.

Target: T1, human URAT1 (Homo sapiens, UniProt Q96S37)
T1 construct: The full-length hURAT1 cDNA was obtained from the vector pCMV6-XL5 and subcloned into the expression vector pCMV6-Neo
T1 sequence (Q96S37 1-553): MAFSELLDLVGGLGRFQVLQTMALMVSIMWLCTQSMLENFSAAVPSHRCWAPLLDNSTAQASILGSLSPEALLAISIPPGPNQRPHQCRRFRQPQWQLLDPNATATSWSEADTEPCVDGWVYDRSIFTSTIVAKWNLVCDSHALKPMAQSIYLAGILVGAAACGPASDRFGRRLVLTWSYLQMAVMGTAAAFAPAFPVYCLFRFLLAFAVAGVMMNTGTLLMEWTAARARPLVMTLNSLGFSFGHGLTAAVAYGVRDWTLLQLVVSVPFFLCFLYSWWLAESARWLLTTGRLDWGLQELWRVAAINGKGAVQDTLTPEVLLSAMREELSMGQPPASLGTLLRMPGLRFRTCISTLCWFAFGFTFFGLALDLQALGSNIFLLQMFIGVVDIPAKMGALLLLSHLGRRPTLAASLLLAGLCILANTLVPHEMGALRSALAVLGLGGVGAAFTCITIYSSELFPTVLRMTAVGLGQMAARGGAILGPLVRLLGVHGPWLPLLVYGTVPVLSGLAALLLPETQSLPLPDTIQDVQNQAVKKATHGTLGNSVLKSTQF
Assay: URAT1 inhibition assay, [8-14C] urate uptake in hURAT1-HEK cells
Type: cell-based
Settings: 50 μM [8-14C] urate; for inhibition at 10 µM: drug concentration typically 10 micromolar, read-out: % of Inhibition (uric acid uptake)
Procedure: A suitable assay involves transfection of cells (e.g. human embryonic kidney cells; “HEK”) with a vector encoding human URAT1, followed by determination of the ability of transfected cells to take up radiolabeled uric acid. The activity of compounds as URAT1 inhibitors is evaluated by their ability to block uric acid uptake by transfected cells.
Urate (50-60 mCi/mmol; American Radio Chemicals, Cat. No. ARC0513).
Plasmid vector pCMV6-XL5 containing hURAT1 cDNA (Cat. No. SC125624) and the expression vector pCMV6-Neo (Cat. No. pCMVNEO) were obtained from OriGene Technologies, Inc. The full-length hURAT1 cDNA was obtained from the vector pCMV6-XL5 and subcloned into the expression vector pCMV6-Neo to create the hURAT1 expression plasmid pCMV6-hURAT1. The sequences were verified by automatic DNA sequencing.
For transfection experiments, cells were plated on 60 mm dishes in 1 ml media per dish. […] Stable transfectants expressing hURAT1 (herein after referred as hURAT1-HEK cells) or cells having only the expression vector pCMV6-Neo (herein after referred as mock-HEK cells) were verified using reverse transcription polymerase chain reaction (RT-PCR) methods.
Before the uptake assay started, the culture medium was removed and the cells were incubated for 5 min in 0.6 ml of HBSS. After that HBSS was removed, the prepared reaction solutions were added into each well and incubated for 5 min at room temperature. Then the reaction solution was removed, cells were washed twice with 0.6 ml of cold HBSS and lysed with 0.2 ml of 0.1 M NaOH for 20 min. […] Test compounds were dissolved in DMSO and the same concentration of DMSO was added into the wells of mock-HEK cells and the hURAT1-HEK cells that didn't contain test compounds. For each test compound, the uptake assay was performed 2 times and carried out in triplicate. Urate uptake of the cells for each test condition was presented as the average percent inhibition in comparison to the DMSO control. The radioactivity values obtained for the wells that contained DMSO were taken as 100% uptake of the cells. The observed concentration-percent inhibition data were fitted to a sigmoidal concentration-effect model, where: IC50^Slope=[(100*Conc^Slope)/% Inhibition]−Conc^Slope
Additional drug concentrations were tested for determination of IC-50 values for some compounds (Table 6).

inhibition at 10 µM [%]	IC50 [nM]	Compound
28.6		Cc1cccc(C)c1COc1cccc(CCCC(=O)O)c1 [BS, 4-(3-(2,6-Dimethylbenzyloxy)phenyl)butanoic acid]
61.9		O=C(O)CCC(=O)c1cccc(OCc2c(F)cccc2F)c1 [AW, 4-(3-(2,6-Difluorobenzyloxy)phenyl)-4-oxobutanoic acid]
41.3		O=C(O)CCC(=O)c1ccc(OCc2ccccn2)cc1 [AF, 4-oxo-4-(4-(pyridin-2-ylmethoxy)phenyl)butanoic acid]
0		CN(CCOc1ccc(C(=O)CCC(=O)O)cc1)Cc1ccccc1F [AM, 4-(4-(2-((2-Fluorobenzyl)(methyl)amino)ethoxy)phenyl)-4-oxobutanoic acid hydrochloride]
89.1		Cc1cccc(C)c1COc1cccc(C(C)C(=O)O)c1 (stereo not drawn) [DT, 2-(3-(2,6-Dimethylbenzyloxy)phenyl)propanoic acid]
26.9		O=C(O)Cc1cccc(OCc2ccccc2)c1 [DZ, 2-(3-(Benzyloxy)phenyl)acetic acid]
89	1010	Cc1cccc(C)c1COc1cccc(CCC(=O)O)c1 [CM, 3-(3-(2,6-Dimethylbenzyloxy)phenyl)propanoic acid]
45.4		O=C(O)Cc1cccc(OCc2ccc(C(F)(F)F)cc2C(F)(F)F)c1 [DN, 2-(3-(2,4-bis(trifluoromethyl)benzyloxy)phenyl)acetic acid]
75		O=C(O)CCC(=O)c1cccc(OCc2c(Cl)cccc2Cl)c1 [DS, 4-(3-(2,6-Dichlorobenzyloxy)phenyl)-4-oxobutanoic acid]
88	2690	Cc1cccc(C)c1COc1cccc(CCCCC(=O)O)c1 [CK, 5-(3-(2,6-Dimethylbenzyloxy)phenyl)pentanoic acid]
63.5		Cc1cccc(C)c1COc1cccc(C(=O)CCCC(=O)O)c1 [CD, 5-(3-(2,6-Dimethylbenzyloxy)phenyl)-5-oxopentanoic acid]
51.8		COc1cc(C(=O)CCC(=O)O)ccc1OCc1c(C)cccc1C [BT, 4-(4-(2,6-Dimethylbenzyloxy)-3-methoxyphenyl)-4-oxobutanoic acid]
	330	Cc1cccc(C)c1COc1cccc(C(C)C(=O)O)c1 (stereo not drawn) [EC, 2-(3-(2,6-Dimethylbenzyloxy)phenyl)propanoic acid]
7.95		Cc1ccc(C)c(COc2ccc(C(=O)CCC(=O)O)cc2)c1 [AT, 4-(4-(2,5-Dimethylbenzyloxy)phenyl)-4-oxobutanoic acid]
84.8	1330	Cc1cccc(C)c1COc1cccc(C(=O)C(=O)O)c1 [CQ, 2-(3-(2,6-Dimethylbenzyloxy)phenyl)-2-oxoacetic acid]
8.9		O=C(O)CCC(=O)c1ccc(OCc2ccccc2C(F)(F)F)cc1 [AY, 4-(4-(2-Trifluoromethylbenzyloxy)phenyl)-4-oxobutanoic acid]
80.3		Cc1cccc(C)c1COc1ccc(CC(=O)O)cc1 [DO, 2-(4-(2,6-Dimethylbenzyloxy)phenyl)acetic acid]
21.6		COC(=O)CC(=O)c1cccc(OCc2c(C)cccc2C)c1 [EB, Methyl 3-(3-(2,6-dimethylbenzyloxy)phenyl)-3-oxopropanoate]
90.1		Cc1cccc(C)c1COc1cccc(C(C)(C)C(=O)O)c1 [EE, 2-(3-(2,6-Dimethylbenzyloxy)phenyl)-2-methylpropanoic acid]
81.8		Cc1cccc(F)c1COc1cccc(C(=O)CCC(=O)O)c1 [BJ, 4-(3-(2-Fluoro-6-methylbenzyloxy)phenyl)-4-oxobutanoic acid]
26.8		O=C(O)CCC(=O)c1ccc(OCc2c(F)cccc2F)cc1 [AH, 4-(4-(2,6-Difluorobenzyloxy)phenyl)-4-oxobutanoic acid]

inhibition at 10 µM [%]	IC50 [nM]	Compound
79.5	890	CCC(C(=O)O)c1cccc(OCc2c(C)cccc2C)c1 (stereo not drawn) [DV, 2-(3-(2,6-Dimethylbenzyloxy)phenyl)butanoic acid]
54		Cc1cc(C)cc(COc2cccc(CC(=O)O)c2)c1 [DW, 2-(3-(3,5-Dimethylbenzyloxy)phenyl)acetic acid]
3.7		COc1ccccc1COc1ccc(C(=O)CCC(=O)O)cc1 [AB, 4-(4-(2-Methoxybenzyloxy)phenyl)-4-oxobutanoic acid]
5.99		O=C(O)CCC(=O)c1ccc(OCc2ccccc2)cc1 [AG, 4-(4-(Benzyloxy)phenyl)-4-oxobutanoic acid]
2.3		O=C(O)CCC(=O)c1ccc(OCc2ccccc2Cl)cc1 [AI, 4-(4-(2-Chlorobenzyloxy)phenyl)-4-oxobutanoic acid]
89.7		Cc1cccc(Cl)c1COc1cccc(CC(=O)O)c1 [EG, 2-(3-(2-Chloro-6-methylbenzyloxy)phenyl)acetic acid]
68.3		O=C(O)Cc1cccc(OCc2c(F)cccc2F)c1 [DR, 2-(3-(2,6-Difluorobenzyloxy)phenyl)acetic acid]
60.6		Cc1cccc(C)c1COc1cccc([C@H](O)CCC(=O)O)c1 [CR, 4-(3-(2,6-Dimethylbenzyloxy)-phenyl)-4(R)-hydroxybutanoic acid]
62.4		O=C(O)CCC(=O)c1cccc(OCC2CC2)c1 [BH, 4-(3-(Cyclopropylmethoxy)phenyl)-4-oxobutanoic acid]
90.3	590	Cc1cccc(C)c1COc1cccc(C2(C(=O)O)CC2)c1 [EF, 1-(3-(2,6-Dimethylbenzyloxy)phenyl)cyclopropanecarboxylic acid]
99.4	180	COc1ccc(CC(=O)O)cc1OCc1c(C)cccc1C [DQ, 2-(3-(2,6-Dimethylbenzyloxy)-4-methoxyphenyl)acetic acid]
60.5		Cc1cccc(C)c1C(=O)Oc1cccc(C(=O)CCC(=O)O)c1 [DP, 4-(3-(2,6-Dimethylbenzoyloxy)phenyl)-4-oxobutanoic acid]
64		Cc1ccc(COc2cccc(CC(=O)O)c2)c(C)c1 [DX, 2-(3-(2,4-Dimethylbenzyloxy)phenyl)acetic acid]
30.5		O=C(O)Cc1cccc(OCc2ccc(C(F)(F)F)cc2)c1 [DU]
96.5	530	Cc1cccc(C)c1COc1cccc(CC(=O)O)c1 [CF, 3-(2,6-Dimethylbenzyloxy)phenylacetic acid]
54.4		Cc1ccccc1COc1cccc(C(=O)CCC(=O)O)c1 [AN, 4-(3-(2-Methylbenzyloxy)phenyl)-4-oxobutanoic acid]
85.2	1880	COc1cccc(OC)c1COc1cccc(CC(=O)O)c1 [DY, 2-(3-(2,6-Dimethoxylbenzyloxy)phenyl)acetic acid]
76.5	4390	Cc1cccc(C)c1COc1cccc(C(=O)CC(C)(C)C(=O)O)c1 [BP, 4-(3-(2,6-Dimethylbenzyloxy)phenyl)-2,2-dimethyl-4-oxobutanoic acid]
22.2		Cc1cccc(C)c1COc1ccc(C(=O)CCC(=O)O)cc1 [BM, 4-(4-(2,6-Dimethylbenzyloxy)phenyl)-4-oxobutanoic acid]
49		Cc1cccc(C)c1COc1ccccc1CC(=O)O [EA, 2-(2-(2,6-Dimethylbenzyloxy)phenyl)acetic acid]
93		Cc1cccc(C)c1COc1cc(CC(=O)O)ccc1F [EI, 2-(3-(2,6-Dimethylbenzyloxy)-4-fluorophenyl)acetic acid]
